Molecular target: T1, plasminogen activator inhibitor-1 (PAI-1) (Homo sapiens, UniProt P05121)
T1 construct: gene SERPINE1; recombinant human PAI-1
Assay: chromogenic uPA/S-2444 assay with recombinant PAI-1; supported by SDS-PAGE of PAI-1/uPA complex and clot lysis assay
Assay type: biochemical

T1 sequence (P05121 24-402, other chains not shown): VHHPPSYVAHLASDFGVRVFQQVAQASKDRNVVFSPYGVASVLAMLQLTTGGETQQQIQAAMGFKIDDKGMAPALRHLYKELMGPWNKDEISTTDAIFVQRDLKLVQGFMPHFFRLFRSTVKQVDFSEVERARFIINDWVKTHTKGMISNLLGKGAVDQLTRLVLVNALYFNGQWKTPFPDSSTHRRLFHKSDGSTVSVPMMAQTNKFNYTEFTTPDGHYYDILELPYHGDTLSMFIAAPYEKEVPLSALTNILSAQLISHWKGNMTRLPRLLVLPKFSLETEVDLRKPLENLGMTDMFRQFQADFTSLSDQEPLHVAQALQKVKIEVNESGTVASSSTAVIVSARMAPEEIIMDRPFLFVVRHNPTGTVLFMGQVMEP

COc1cc2oc(=O)ccc2c(OC)c1C[C@@H](O)C(C)(C)O (single isomer, unassigned) [Peak 4, toddalolactone]
IC50: 37.3 ± 3.23 µM

— publication PMC5519579, “Inhibition of PAI-1 Activity by Toddalolactone as a Mechanism for Promoting Blood Circulation and Removing Stasis by Chinese Herb Zanthoxylum nitidum var. tomentosum” (Frontiers in Pharmacology, 2017)
